# Data as given in patent US20040006070A1, “Intraspinal continuous infusion of midazolam hydrochloride for the treatment of pain” (priority 2002, published 2004).
# Counter-ions that a name gives are not always drawn.
# Assay: Bloodwork: complete blood count, electrolytes, extended blood chemistry
# Assay type: in vivo, sheep
# Procedure: Indirect blood pressure, pulse recording, pain testing (mechanical stimulus device, cold and warm water baths see description in procedure) and weight were taken on days 1, 3, 7, 15, 22, 29, 36, and 43. Venous blood samples (15 ml drawn from the jugular vein with Vacutainer brand blood collection tubes) for complete blood count, electrolytes, and extended blood chemistry were drawn on days 1, 15, and 43 (mild procedure only light hand restraint necessary).
# [1] = sheep Elmer Fudd #437, 5 mg/day, Day 43
# [2] = sheep Leghorn II #815, 15 mg/day, Baseline
# [3] = sheep Leghorn II #815, 15 mg/day, Day 1
# [4] = sheep Leghorn II #815, 15 mg/day, Day 15
# [5] = sheep Leghorn II #815, 15 mg/day, Day 43
# [6] = sheep Petunia #439, 15 mg/day, Baseline
# [7] = sheep Petunia #439, 15 mg/day, Day 1
# [8] = sheep Petunia #439, 15 mg/day, Day 15
# [9] = sheep Petunia #439, 15 mg/day, Day 43
# [10] = sheep Porky #402, 5 mg/day, Baseline
# [11] = sheep Porky #402, 5 mg/day, Day 1
# [12] = sheep Porky #402, 5 mg/day, Day 15
# [13] = sheep Porky #402, 5 mg/day, Day 43
smiles,measurement,setting,value
"Cc1ncc2n1-c1ccc(Cl)cc1C(c1ccccc1F)=NC2 [Midazolam, midazolam hydrochloride]",CPK,[1],64 U/L
same,Cholesterol,[1],90 mg/dL
same,Creatinine,[1],1.3 mg/dL
same,Differential Count: Atyp lym,[1],0%
same,Differential Count: Bands,[1],0%
same,Differential Count: Eosin,[1],2%
same,Differential Count: Lymph,[1],38%
same,Differential Count: Mono,[1],1%
same,Differential Count: Seg,[1],59%
same,Gamma GT,[1],48 U/L
same,Glucose,[1],83 mg/dL
same,Hct,[1],34.6%
same,Hgb,[1],11.8 g/dL
same,K+,[1],4.3 mEq/l
same,MCH,[1],10.8 pg
same,MCHC,[1],34.2 G/dl
same,MCV,[1],31.7 fL
same,Na+,[1],147 mEq/l
same,Phos,[1],6.2 mg/dL
same,Platlet Count,[1],540000 µL⁻¹
same,RBC,[1],1.09e+07 µL⁻¹
same,Total Bili,[1],0.1 mg/dL
same,Total Prot,[1],6.6 g/dL
same,WBC,[1],4650 µL⁻¹
same,Differential Count: Atyp lym,[2],0%
same,Differential Count: Baso,[2],0%
same,Differential Count: Eosin,[2],4%
same,Differential Count: Lymph,[2],79%
same,Differential Count: Mono,[2],3%
same,Differential Count: Seg,[2],14%
same,Hct,[2],36.9%
same,Hgb,[2],12.5 g/dL
same,MCH,[2],10.7 pg
same,MCHC,[2],33.9 G/dl
same,MCV,[2],31.5 fL
same,Platlet Count,[2],516000 µL⁻¹
same,RBC,[2],1.17e+07 µL⁻¹
same,WBC,[2],6730 µL⁻¹
same,ALT,[3],14 U/L
same,AST,[3],117 U/L
same,Albumin,[3],3.5 g/dL
same,Alk Phos,[3],117 U/L
same,BUN,[3],19 mg/dL
same,CPK,[3],94 U/L
same,Cholesterol,[3],68 mg/dL
same,Creatinine,[3],0.9 mg/dL
same,Differential Count: Atyp lym,[3],0%
same,Differential Count: Baso,[3],0%
same,Differential Count: Eosin,[3],2%
same,Differential Count: Lymph,[3],58%
same,Differential Count: Mono,[3],2%
same,Differential Count: Seg,[3],28%
same,Gamma GT,[3],80 U/L
same,Glucose,[3],80 mg/dL
same,Hct,[3],34.7%
same,Hgb,[3],11.8 g/dL
same,K+,[3],5.0 mEq/l
same,MCH,[3],10.6 pg
same,MCHC,[3],34.0 G/dl
same,MCV,[3],31.1 fL
same,Na+,[3],146 mEq/l
same,Phos,[3],8.3 mg/dL
same,Platlet Count,[3],828000 µL⁻¹
same,RBC,[3],1.11e+07 µL⁻¹
same,Total Bili,[3],0 mg/dL
same,Total Prot,[3],6.3 g/dL
same,WBC,[3],6070 µL⁻¹
same,Differential Count: Atyp lym,[4],0%
same,Differential Count: Baso,[4],0%
same,Differential Count: Eosin,[4],16%
same,Differential Count: Lymph,[4],59%
same,Differential Count: Mono,[4],1%
same,Differential Count: Seg,[4],24%
same,Hct,[4],38.0%
same,Hgb,[4],12.4 g/dL
same,MCH,[4],10.4 pg
same,MCHC,[4],32.7 G/dl
same,MCV,[4],31.8 fL
same,Platlet Count,[4],861000 µL⁻¹
same,RBC,[4],1.2e+07 µL⁻¹
same,WBC,[4],6640 µL⁻¹
same,Differential Count: Atyp lym,[5],0%
same,Differential Count: Baso,[5],1%
same,Differential Count: Eosin,[5],2%
same,Differential Count: Lymph,[5],77%
same,Differential Count: Mono,[5],2%
same,Differential Count: Seg,[5],18%
same,Hct,[5],36.4%
same,Hgb,[5],12.3 g/dL
same,MCH,[5],10.5 pg
same,MCHC,[5],33.7 G/dl
same,MCV,[5],31.2 fL
same,Platlet Count,[5],345000 µL⁻¹
same,RBC,[5],1.17e+07 µL⁻¹
same,WBC,[5],6110 µL⁻¹
same,Differential Count: Atyp lym,[6],0%
same,Differential Count: Bands,[6],0%
same,Differential Count: Eosin,[6],130%
same,Differential Count: Lymph,[6],53%
same,Differential Count: Mono,[6],7%
same,Differential Count: Seg,[6],27%
same,Hct,[6],41.1%
same,Hgb,[6],14.0 g/dL
same,MCH,[6],11.5 pg
same,MCHC,[6],34.2 G/dl
same,MCV,[6],33.6 fL
same,Platlet Count,[6],489000 µL⁻¹
same,RBC,[6],1.22e+07 µL⁻¹
same,WBC,[6],3120 µL⁻¹
same,ALT,[7],0 U/L
same,AST,[7],102 U/L
same,Albumin,[7],3.6 g/dL
same,Alk Phos,[7],43 U/L
same,BUN,[7],10 mg/dL
same,CPK,[7],84 U/L
same,Cholesterol,[7],60 mg/dL
same,Creatinine,[7],1.1 mg/dL
same,Differential Count: Atyp lym,[7],2%
same,Differential Count: Bands,[7],1%
same,Differential Count: Eosin,[7],1%
same,Differential Count: Lymph,[7],50%
same,Differential Count: Mono,[7],6%
same,Differential Count: Seg,[7],40%
same,Gamma GT,[7],84 U/L
same,Glucose,[7],71 mg/dL
same,Hct,[7],42.4%
same,Hgb,[7],14.4 g/dL
same,K+,[7],5.4 mEq/l
same,MCH,[7],11.3 pg
same,MCHC,[7],33.9 G/dl
same,MCV,[7],33.3 fL
same,Na+,[7],152 mEq/l
same,Phos,[7],7.9 mg/dL
same,RBC,[7],1.27e+07 µL⁻¹
same,Total Bili,[7],0 mg/dL
same,Total Prot,[7],6.6 g/dL
same,WBC,[7],2920 µL⁻¹
same,Platlet Count,"sheep Petunia #439, 15 mg/day, Day 1, platelet clumps observed",715• ×10^3/μl
same,ALT,[8],1 U/L
same,AST,[8],94 U/L
same,Albumin,[8],4.0 g/dL
same,Alk Phos,[8],29 U/L
same,BUN,[8],14 mg/dL
same,CPK,[8],105 U/L
same,Cholesterol,[8],61 mg/dL
same,Creatinine,[8],1.2 mg/dL
same,Differential Count: Atyp lym,[8],1%
same,Differential Count: Bands,[8],0%
same,Differential Count: Eosin,[8],2%
same,Differential Count: Lymph,[8],46%
same,Differential Count: Mono,[8],3%
same,Differential Count: Seg,[8],48%
same,Gamma GT,[8],74 U/L
same,Glucose,[8],93 mg/dL
same,Hct,[8],30.8%
same,Hgb,[8],10.1 g/dL
same,K+,[8],4.3 mEq/l
same,MCH,[8],11.2 pg
same,MCHC,[8],32.7 G/dl
same,MCV,[8],34.2 fL
same,Na+,[8],150 mEq/l
same,Phos,[8],4.9 mg/dL
same,RBC,[8],9.02e+06 µL⁻¹
same,Total Bili,[8],0.3 mg/dL
same,Total Prot,[8],7.2 g/dL
same,WBC,[8],3600 µL⁻¹
same,Platlet Count,"sheep Petunia #439, 15 mg/day, Day 15, platelet clumps observed",606• ×10^3/μl
same,ALT,[9],0 U/L
same,AST,[9],97 U/L
same,Albumin,[9],3.6 g/dL
same,Alk Phos,[9],49 U/L
same,BUN,[9],17 mg/dL
same,CPK,[9],91 U/L
same,Cholesterol,[9],65 mg/dL
same,Creatinine,[9],1.2 mg/dL
same,Differential Count: Atyp lym,[9],1%
same,Differential Count: Bands,[9],0%
same,Differential Count: Eosin,[9],7%
same,Differential Count: Lymph,[9],47%
same,Differential Count: Mono,[9],4%
same,Differential Count: Seg,[9],41%
same,Gamma GT,[9],77 U/L
same,Glucose,[9],68 mg/dL
same,Hct,[9],36.0%
same,Hgb,[9],11.8 g/dL
same,K+,[9],5.2 mEq/l
same,MCH,[9],11.2 pg
same,MCHC,[9],32.7 G/dl
same,MCV,[9],34.1 fL
same,Na+,[9],146 mEq/l
same,Phos,[9],6.2 mg/dL
same,Platlet Count,[9],356000 µL⁻¹
same,RBC,[9],1.05e+07 µL⁻¹
same,Total Bili,[9],0.1 mg/dL
same,Total Prot,[9],6.3 g/dL
same,WBC,[9],2300 µL⁻¹
same,Differential Count: Atyp lym,[10],0%
same,Differential Count: Bands,[10],0%
same,Differential Count: Eosin,[10],2%
same,Differential Count: Lymph,[10],48%
same,Differential Count: Mono,[10],2%
same,Differential Count: Seg,[10],48%
same,Hct,[10],40.7%
same,Hgb,[10],13.5 g/dL
same,MCH,[10],12.4 pg
same,MCHC,[10],33.2 g/dL
same,MCV,[10],37.2 fL
same,Platlet Count,[10],215000 µL⁻¹
same,RBC,[10],1.09e+07 µL⁻¹
same,WBC,[10],3530 µL⁻¹
same,ALT,[11],3 U/L
same,AST,[11],67 U/L
same,Albumin,[11],3.5 g/dL
same,Alk Phos,[11],37 U/L
same,BUN,[11],10 mg/dL
same,CPK,[11],73 U/L
same,Cholesterol,[11],71 mg/dL
same,Creatinine,[11],1.3 mg/dL
same,Differential Count: Atyp lym,[11],0%
same,Differential Count: Bands,[11],0%
same,Differential Count: Eosin,[11],1%
same,Differential Count: Lymph,[11],41%
same,Differential Count: Mono,[11],5%
same,Differential Count: Seg,[11],53%
same,Gamma GT,[11],46 U/L
same,Glucose,[11],72 mg/dL
same,Hct,[11],40.4%
same,Hgb,[11],13.4 g/dL
same,K+,[11],4.6 mEq/l
same,MCH,[11],12.3 pg
same,MCHC,[11],33.1 g/dL
same,MCV,[11],37.1 fL
same,Na+,[11],153 mEq/l
same,Phos,[11],7.5 mg/dL
same,Platlet Count,[11],319000 µL⁻¹
same,RBC,[11],1.09e+07 µL⁻¹
same,Total Bili,[11],0 mg/dL
same,Total Prot,[11],6.8 g/dL
same,WBC,[11],3470 µL⁻¹
same,ALT,[12],8 U/L
same,AST,[12],69 U/L
same,Albumin,[12],3.9 g/dL
same,Alk Phos,[12],33 U/L
same,BUN,[12],14 mg/dL
same,CPK,[12],94 U/L
same,Cholesterol,[12],3.5 mg/dL
same,Creatinine,[12],1.2 mg/dL
same,Differential Count: Atyp lym,[12],0%
same,Differential Count: Bands,[12],0%
same,Differential Count: Eosin,[12],1%
same,Differential Count: Lymph,[12],33%
same,Differential Count: Mono,[12],5%
same,Differential Count: Seg,[12],61%
same,Gamma GT,[12],74 U/L
same,Glucose,[12],89 mg/dL
same,Hct,[12],31.4%
same,Hgb,[12],10.2 g/dL
same,K+,[12],4.2 mEq/l
same,MCH,[12],12.3 pg
same,MCHC,[12],32.3 g/dL
same,MCV,[12],38.2 fL
same,Na+,[12],150 mEq/l
same,Phos,[12],48 mg/dL
same,Platlet Count,[12],173000 µL⁻¹
same,RBC,[12],8.23e+06 µL⁻¹
same,Total Bili,[12],0.2 mg/dL
same,Total Prot,[12],7.4 g/dL
same,WBC,[12],3170 µL⁻¹
same,ALT,[13],13 U/L
same,AST,[13],59 U/L
same,Albumin,[13],3.5 g/dL
same,Alk Phos,[13],55 U/L
same,BUN,[13],17 mg/dL
same,CPK,[13],93 U/L
same,Cholesterol,[13],62 mg/dL
same,Creatinine,[13],1.3 mg/dL
same,Differential Count: Atyp lym,[13],1%
same,Differential Count: Bands,[13],0%
same,Differential Count: Eosin,[13],5%
same,Differential Count: Lymph,[13],40%
same,Differential Count: Mono,[13],5%
same,Differential Count: Seg,[13],49%
same,Gamma GT,[13],42 U/L
same,Glucose,[13],61 mg/dL
same,Hct,[13],39.2%
same,Hgb,[13],12.2 g/dL
same,K+,[13],4.8 mEq/l
same,MCH,[13],12.0 pg
same,MCHC,[13],31.8 g/dL
same,MCV,[13],37.6 fL
same,Na+,[13],147 mEq/l
same,Phos,[13],5.9 mg/dL
same,Platlet Count,[13],214000 µL⁻¹
same,RBC,[13],1.04e+07 µL⁻¹
same,Total Bili,[13],0.1 mg/dL
same,Total Prot,[13],6.4 g/dL
same,WBC,[13],3590 µL⁻¹
